In the supplement of paper PMC10307832 one finds relative viability data, which are given here for one cell line.

Holding throughout (assay): relative viability (nuclei count vs DMSO), 5 days (fraction); higher = more cells survive
Compound in assay [1]: CS(=O)(=O)c1ccc(-c2cnc(N)c(C(=O)Nc3ccccc3)n2)cc1 [VE-821] + CS(=O)(=O)CCNCc1ccc(-c2ccc3ncnc(Nc4ccc(OCc5cccc(F)c5)c(Cl)c4)c3c2)o1 [Lapatinib] (partner 2 µM)
An outline of the steps:
(§1)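 Values are medians from duplicate plates. Each reflects relative viability, defined as the nuclei count of treated wells over that of vehicle wells. Lung cancer cell lines in 1536-well plates were pin-tool dosed one day after seeding with one drug alone or with a fixed anchor-drug dose plus five library-drug doses (not always all listed) in √10 steps, then fixed, stained and imaged at 4× after 5 days.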

Compound in assay [2]: CS(=O)(=O)c1ccc(-c2cnc(N)c(C(=O)Nc3ccccc3)n2)cc1 [VE-821] + Nc1nc2[nH]cc(CCc3ccc(C(=O)N[C@@H](CCC(=O)O)C(=O)O)cc3)c2c(=O)[nH]1 [Pemetrexed] (partner 0.2 µM)
An outline of the steps: as §1

Compound in assay [3]: CS(=O)(=O)c1ccc(C(=O)Nc2ccc(Cl)c(-c3ccccn3)c2)c(Cl)c1 [Vismodegib] + CC(=O)Nc1cccc(-n2c(=O)n(C3CC3)c(=O)c3c(Nc4ccc(I)cc4F)n(C)c(=O)c(C)c32)c1 [Trametinib] (partner 0.02 µM)
The method, boiled down:
as §1

Compound in assay [4]: N#CC[C@H](C1CCCC1)n1cc(-c2ncnc3[nH]ccc23)cn1 [Ruxolitinib] + Cc1cc(Nc2cc(N3CCN(C)CC3)nc(Sc3ccc(NC(=O)C4CC4)cc3)n2)n[nH]1 [Tozasertib] (partner 0.1 µM)
An outline of the steps: as §1

UMC-11: the relative viability stood at 1.23 in assay [1] (first compound 0.08 µM); 0.845 in assay [1] (first compound 0.253 µM); 0.916 in assay [1] (first compound 0.8 µM); 1.12 in assay [1] (first compound 2.53 µM); 0.644 in assay [1] (first compound 8 µM); 0.818 in assay [2] (first compound 0.08 µM). The relative viability worked out at 0.718 in assay [2] (first compound 0.253 µM); 0.728 in assay [2] (first compound 0.8 µM); 0.513 in assay [2] (first compound 2.53 µM); 0.266 in assay [2] (first compound 8 µM); 0.422 in assay [3] (first compound 0.08 µM); 0.669 in assay [3] (first compound 0.253 µM). The relative viability was 0.609 in assay [3] (first compound 0.8 µM); 0.618 in assay [3] (first compound 2.53 µM); 0.375 in assay [3] (first compound 8 µM); 0.206 in assay [4] (first compound 0.08 µM); 0.206 in assay [4] (first compound 0.253 µM); 0.203 in assay [4] (first compound 0.8 µM). Also, the results for the relative viability in assay [4] (first compound 2.53 µM) and in assay [4] (first compound 8 µM) were 0.214 and 0.2, respectively.
